Results published in patent US9999621B2, “Medical use of artemisinin compounds and gephyrin agonists” (CeMM-Forschungszentrum für Molekulare Medizin GmbH, priority 2014, dated 2018).
Read-outs that look alike come from different tables or passages of the source.

Key:
alphaTC1 cells = assay: Insulin expression in alpha cell line, immunofluorescence; assay type: cell-based, mouse; conditions: for insulin expression in alpha cells: alphaTC1 cells, immunofluorescence
[1] = system: Min6 cells overexpressing ARX; assay: High-throughput screen for functional repressors of ARX, insulin immunofluorescence; assay type: cell-based, mouse
Procedure: Mouse pancreatic cell lines αTC1 (provided by Novo Nordisk) and βTC3 (provided by Novo Nordisk) were grown in low-glucose DMEM supplemented by 10% FBS, 50 U/mL penicillin and 50 μg/mL streptomycin. Mouse pancreatic cell lines Min6 (provided by Novo Nordisk) with Doxycycline inducible construct was grown in high-glucose DMEM supplemented by 15% Tet System Approved FBS (Clonetech 631106), 71 uM 2-mercaptoethanol, 50 U/mL penicillin and 50 ug/mL streptomycin. The cell culture for human islets followed established protocols (Walpita et al., 2012).
Compounds (50 nL) were transferred to black optical suitable 384-well plate (Corning 3712) from DMSO stock plates using acoustic transfer (Labcyte Inc.). Min6 cells (3000 cells per well) were plated in 50 ul media on top of the compounds. Three days after treatment, cells were fixed in 3.7% formaldehyde for ten minutes at room temperature. Following PBS washing, cells were fixed with cold pure methanol at −20° C. for 10 minutes, permeabilized by 1% Triton X-100 in PBS for 30 minutes and blocked by 3% BSA in PBS for 30 minutes. Twenty microliters of primary anti-insulin antibody, diluted in 1:2000 in 1.5% BSA, was added per well and incubated in 4° C. overnight. […]
Images were taken by an automated microscope (Perkin Elmer Operetta) using a 20× objective. […] Images were analyzed by the Harmony (Perkin Elmer) software. […]

gephyrin [2] = target: T1, gephyrin (Mus musculus, UniProt Q8BUV3); assay: Gephyrin protein levels in alpha cells, Western blot and immunofluorescence; assay type: cell-based; design: endogenous in cells; host or cells: aTC1 mouse pancreatic alpha cell line; conditions: alpha cell line
T1 sequence (Q8BUV3 1-769): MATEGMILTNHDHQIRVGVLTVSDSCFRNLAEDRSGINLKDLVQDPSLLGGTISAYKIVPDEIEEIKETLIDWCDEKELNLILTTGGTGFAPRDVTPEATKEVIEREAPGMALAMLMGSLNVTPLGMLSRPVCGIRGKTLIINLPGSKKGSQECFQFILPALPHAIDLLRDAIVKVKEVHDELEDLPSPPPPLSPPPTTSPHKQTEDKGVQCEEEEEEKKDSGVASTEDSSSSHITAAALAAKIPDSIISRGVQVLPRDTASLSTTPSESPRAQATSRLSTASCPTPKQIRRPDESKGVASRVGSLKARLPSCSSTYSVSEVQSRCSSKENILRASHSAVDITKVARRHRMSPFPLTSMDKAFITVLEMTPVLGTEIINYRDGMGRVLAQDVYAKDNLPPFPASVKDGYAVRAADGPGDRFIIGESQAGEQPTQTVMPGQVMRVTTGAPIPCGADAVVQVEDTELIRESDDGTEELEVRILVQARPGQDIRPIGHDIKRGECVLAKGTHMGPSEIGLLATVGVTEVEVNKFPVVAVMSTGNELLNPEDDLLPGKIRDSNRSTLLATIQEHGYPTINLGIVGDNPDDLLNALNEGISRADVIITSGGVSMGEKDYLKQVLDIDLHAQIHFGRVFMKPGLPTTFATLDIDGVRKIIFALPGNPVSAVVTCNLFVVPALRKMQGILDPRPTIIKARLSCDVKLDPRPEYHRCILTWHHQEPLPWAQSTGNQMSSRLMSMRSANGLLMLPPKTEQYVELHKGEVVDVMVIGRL
Procedure: Whole cell extracts were generated by lysing cells in NP-40 buffer containing 150 mM sodium chloride, 1.0% NP-40 and 50 mM Tris, pH 8.0 supplemented by Protease Inhibitor Cocktail (Roche). The whole-cell lysate (30 μg) was loaded onto a SDSpolyacrylamide gel for electrophoresis at 30 mA per gel, and then transferred by electrophoresis to a nitrocellulose membrane (GE Healthcare Life Science). All the blots were incubated with the corresponding primary antibodies diluted in 1:1000 in 5% milk at 4° C. overnight and with HRP-labeled secondary antibodies (diluted 1:20000) for 1 h. The signals were detected using ECL Prime Western blotting Detection Reagent (Amersham).

gephyrin [3] = target: T1, gephyrin; assay: Chemical proteomics pull-down with artesunate matrix, competition by free artemether; assay type: binding; design: using 10 mg total cell lysate as protein input per replicate; endogenous in cells; host or cells: cell lysate; conditions: artesunate coupled to solid support, with and without competing free artemether
Procedure: (§1) Drug-affinity matrices were prepared essentially as described previously (Huber et al, 2014). Briefly, ethylenediamine (2.7 μL, 40 μmol), ethanolamine (9.7 μL, 160 μmol), and triethylamine (15 μL, 108 μmol) were added to 500 μL NHS-activated Sepharose 4 Fast Flow beads (GE Healthcare Bio-Sciences AB, Uppsala, Sweden) and the reaction was put on a rotary shaker for 24 h. Beads were washed and resuspended in DMSO and NHS-activated artesunate (100 μL, 1.00 μmol) was added to the suspension, and the mixture was put on a rotary shaker for 24 h. Unreacted beads were blocked by addition of NHS-acetate (10 μmol) and triethylamine (25 μL, 180 μmol), followed by agitation on a rotary shaker for 24 h. After washing with DMSO and lysis buffer, beads were incubated with cell lysates.
(§2) Affinity chromatography and elution were performed in duplicate as reported previously (Huber et al, 2014), using 10 mg total cell lysate as protein input per replicate. […]
(§3) The initial peptide identifications were used to deduce independent linear transformations for precursor and fragment masses that would minimize the mean square deviation of measured masses from theoretical. […] A false discovery rate (FDR) of <1% for protein identifications and <0.1% for peptides (including the ones exported with lower scores) was determined by applying the same procedure against a database of reversed protein sequences. […]

Btbd9 = target: T2, Btbd9 (Mus musculus, UniProt Q8C726); assay: as above; assay type: binding; conditions: artesunate coupled to solid support, with and without competing free artemether
T2 construct: using 10 mg total cell lysate as protein input per replicate; endogenous in cells; host or cells: cell lysate
T2 sequence (Q8C726 1-612): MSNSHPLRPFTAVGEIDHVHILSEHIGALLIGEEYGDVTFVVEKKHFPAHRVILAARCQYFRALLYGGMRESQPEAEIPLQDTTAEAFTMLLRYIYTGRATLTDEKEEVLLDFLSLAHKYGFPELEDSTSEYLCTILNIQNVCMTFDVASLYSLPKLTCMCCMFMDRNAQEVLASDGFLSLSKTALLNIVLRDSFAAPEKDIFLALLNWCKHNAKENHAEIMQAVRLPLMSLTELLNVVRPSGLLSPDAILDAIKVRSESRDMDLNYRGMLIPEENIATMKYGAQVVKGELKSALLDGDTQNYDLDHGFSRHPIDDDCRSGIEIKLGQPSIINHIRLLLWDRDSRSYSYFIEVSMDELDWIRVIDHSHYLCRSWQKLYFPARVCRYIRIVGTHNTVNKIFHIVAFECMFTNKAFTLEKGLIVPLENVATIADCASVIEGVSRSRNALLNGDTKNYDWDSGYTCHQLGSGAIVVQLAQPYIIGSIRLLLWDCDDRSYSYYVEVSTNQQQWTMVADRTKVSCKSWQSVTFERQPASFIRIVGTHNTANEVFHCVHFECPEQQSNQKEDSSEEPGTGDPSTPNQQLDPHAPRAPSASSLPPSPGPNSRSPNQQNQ
Procedure: as §1, §2, §3

CUL3 = assay: as above; assay type: binding, mouse; conditions: artesunate coupled to solid support, with and without competing free artemether
Procedure: as §1, §2, §3

aTC1 cells = assay: GABAR antagonists combined with artemether, insulin immunofluorescence; assay type: cell-based, mouse

`COC1OC2OC3(C)CCC4C(C)CCC(C1C)C24O3` (centres unmarked) [Deoxyartemether] was tested. Which “insulin expression in alpha cells” value (alphaTC1 cells) did it give?
Its value is “no effects”.

With `CO[C@H]1O[C@@H]2O[C@@]3(C)CC[C@H]4[C@H](C)CC[C@@H]([C@H]1C)[C@@]24OO3` [artemether] as the molecule, how does the EC50 ([1]; Mus musculus, Min6 cells overexpressing ARX, dose response, immunofluorescence (FIG. 3c), read-out: half maximum effective concentration) read?
The EC50 was under 1 µM.

What about the EC50 (alphaTC1 cells; Mus musculus, 72 h, alpha cells, inducing insulin expression, immunofluorescence (FIG. 3d), read-out: half maximum effective concentration) of the same molecule?
The EC50 was under 10 µM.

Which gephyrin protein levels (gephyrin [2]) does the source give for `C[C@@H]1CC[C@H]2[C@@H](C)C(=O)O[C@@H]3O[C@@]4(C)CC[C@@H]1[C@]32OO4` [artemisinin, (3R,5aS,6R,8aS,9R,12S,12aR)-octahydro-3,6,9-trimethyl-3,12-epoxy-12H-pyrano[4,3-j]-1,2-benzodioxepin-10(3H)-one] here?
The gephyrin protein levels was “dose-dependent increase”.

Which “insulin levels in the presence of ARX (ARX overexpression phenotype)” value ([1]; Min6 cells induced to overexpress ARX, 72 hours, immunofluorescence) does the source give for `C[C@H]1[C@H](OC(=O)CCC(=O)O)O[C@@H]2O[C@@]3(C)CC[C@H]4[C@H](C)CC[C@@H]1[C@@]24OO3` [artesunate] here?
The value was “active”.

And the “specific interactor identified by mass spectrometry” value (gephyrin [3])?
The value was “top specific interactor”.

What about the enrichment in pull-down (Btbd9) of the same molecule?
Its enrichment in pull-down is “strong enrichment”.

And the enrichment in pull-down (CUL3)?
Its enrichment in pull-down is “strong enrichment”.

And the “insulin expression in alpha cells” value (alphaTC1 cells)?
The value was “active”.

With `CCO[C@H]1O[C@@H]2O[C@@]3(C)CC[C@H]4[C@H](C)CC[C@@H]([C@H]1C)[C@@]24O3` [deoxyarteether] as the molecule, how does the “insulin expression in alpha cells” value (alphaTC1 cells) read?
The value was “inactive”.

With `COc1ccc(-c2ccc(=N)n(CCCC(=O)O)n2)cc1` [gabazine] as the molecule, how does the “effect of GABAR antagonist on the effects of artemether” value (aTC1 cells) read?
The value was “inhibited the effects of artemether”.

What about the “effect of GABAR antagonist on the effects of artemether” value (aTC1 cells; listed as Gabazine) of the same molecule?
Its value is “inhibits the effects of Artemether”.

What does the source list for `Cc1ccsc1C(=CCCN1CCC[C@@H](C(=O)O)C1)c1sccc1C` [thiagabine]?
insulin expression in alpha cells (alphaTC1 cells): increased the insulin expression; insulin expression in alpha cells (alphaTC1 cells; listed as Thiagabine): increases insulin production
